Data on 24 substances can be found in the OligoGym collection.

HELM strings list units from the 5' end as sugar, base in round brackets, then linkage (d deoxyribose, r ribose, m 2'-O-methyl, p phosphodiester). Strings are as the collection lists them; they lack the last nucleoside at the 3' end of the tested compound. [moe] = 2'-O-(2-methoxyethyl) (MOE); [sp] = phosphorothioate linkage; [m5C] = 5-methylcytosine

This data set concerns the target APP. Description: mouse, dose not given. As to conditions: ASO.

“RNA1{[moe](A)[sp].[moe](T)p.[moe]([m5C])p.[moe](A)p.[moe]([m5C])[sp].d([m5C])[sp].d(A)[sp].d(G)[sp].d(T)[sp].d(T)[sp].d(T)[sp].d([m5C])[sp].d(A)[sp].d(T)[sp].d(A)[sp].[moe]([m5C])p.[moe](A)p.[moe]([m5C])[sp].[moe](T)}$$$$ (last 3' nucleoside missing)” displayed a 3 h FOB score of 0.25 score 0-7.
“RNA1{[moe](A)[sp].[moe]([m5C])p.[moe](A)p.[moe](T)p.[moe](T)[sp].d(A)[sp].d(T)[sp].d(T)[sp].d([m5C])[sp].d(T)[sp].d(A)[sp].d(T)[sp].d(A)[sp].d(A)[sp].d(A)[sp].[moe](T)p.[moe](G)p.[moe](G)[sp].[moe](A)}$$$$ (last 3' nucleoside missing)” showed a 3 h FOB score of 0 score 0-7.
“RNA1{[moe](A)[sp].[moe]([m5C])p.[moe](A)p.[moe](T)p.[moe]([m5C])[sp].d(A)[sp].d(T)[sp].d(A)[sp].d(T)[sp].d(T)[sp].d([m5C])[sp].d(T)[sp].d(T)[sp].d(A)[sp].d([m5C])[sp].[moe](T)p.[moe](G)p.[moe](T)[sp].[moe](T)}$$$$ (last 3' nucleoside missing)”: the 3 h FOB score came to 0 score 0-7.
The same measure for “RNA1{[moe](A)[sp].[moe]([m5C])p.[moe](A)p.[moe]([m5C])p.[moe](A)[sp].d([m5C])[sp].d(A)[sp].d(A)[sp].d(A)[sp].d([m5C])[sp].d(T)[sp].d([m5C])[sp].d(T)[sp].d(A)[sp].d([m5C])[sp].[moe]([m5C])p.[moe]([m5C])p.[moe]([m5C])[sp].[moe](T)}$$$$ (last 3' nucleoside missing)”: 0.5 score 0-7.
The same measure for “RNA1{[moe](A)[sp].[moe]([m5C])p.[moe](A)p.[moe]([m5C])p.[moe]([m5C])[sp].d(G)[sp].d([m5C])[sp].d([m5C])[sp].d([m5C])[sp].d(A)[sp].d([m5C])[sp].d([m5C])[sp].d(A)[sp].d(T)[sp].d(G)[sp].[moe](A)p.[moe](G)p.[moe](T)[sp].[moe]([m5C])}$$$$ (last 3' nucleoside missing)”: 1 score 0-7; for “RNA1{[moe](A)[sp].[moe]([m5C])p.[moe](G)p.[moe](G)p.[moe](A)[sp].d([m5C])[sp].d(T)[sp].d(T)[sp].d(T)[sp].d(T)[sp].d(T)[sp].d(T)[sp].d([m5C])[sp].d(T)[sp].d(T)[sp].[moe]([m5C])p.[moe](T)p.[moe](T)[sp].[moe](G)}$$$$ (last 3' nucleoside missing)”: 0 score 0-7.
The same measure for “RNA1{[moe](A)[sp].[moe]([m5C])p.[moe](T)p.[moe](G)p.[moe](A)[sp].d(T)[sp].d(T)[sp].d(A)[sp].d(T)[sp].d([m5C])[sp].d(A)[sp].d(A)[sp].d(A)[sp].d(T)[sp].d(T)[sp].[moe]([m5C])p.[moe]([m5C])p.[moe](G)[sp].[moe](G)}$$$$ (last 3' nucleoside missing)”: 0.25 score 0-7.
“RNA1{[moe](A)[sp].[moe]([m5C])p.[moe](T)p.[moe](T)p.[moe](A)[sp].d([m5C])[sp].d(A)[sp].d(A)[sp].d(A)[sp].d([m5C])[sp].d(T)[sp].d([m5C])[sp].d(A)[sp].d([m5C])[sp].d([m5C])[sp].[moe](A)p.[moe](A)p.[moe]([m5C])[sp].[moe](T)}$$$$ (last 3' nucleoside missing)” returned a 3 h FOB score of 1 score 0-7.
In the case of “RNA1{[moe](A)[sp].[moe]([m5C])p.[moe](T)p.[moe](T)p.[moe]([m5C])[sp].d(T)[sp].d(A)[sp].d([m5C])[sp].d(T)[sp].d(A)[sp].d([m5C])[sp].d(T)[sp].d(T)[sp].d(T)[sp].d(G)[sp].[moe](T)p.[moe]([m5C])p.[moe](T)[sp].[moe](T)}$$$$ (last 3' nucleoside missing)” it was 1.5 score 0-7; in that of “RNA1{[moe](A)[sp].[moe]([m5C])p.[moe](T)p.[moe]([m5C])p.[moe](A)[sp].d([m5C])[sp].d(A)[sp].d([m5C])[sp].d(A)[sp].d([m5C])[sp].d(T)[sp].d(G)[sp].d(T)[sp].d(T)[sp].d(T)[sp].[moe]([m5C])p.[moe](A)p.[moe](A)[sp].[moe](G)}$$$$ (last 3' nucleoside missing)”, 2.67 score 0-7; in that of “RNA1{[moe](A)[sp].[moe]([m5C])p.[moe](T)p.[moe]([m5C])p.[moe](G)[sp].d(A)[sp].d(A)[sp].d([m5C])[sp].d([m5C])[sp].d(A)[sp].d([m5C])[sp].d([m5C])[sp].d(T)[sp].d([m5C])[sp].d(T)[sp].[moe](T)p.[moe]([m5C])p.[moe]([m5C])[sp].[moe](A)}$$$$ (last 3' nucleoside missing)”, 0 score 0-7.
The same measure for “RNA1{[moe](G)[sp].[moe](A)[sp].[moe](T)p.[moe]([m5C])p.[moe](T)[sp].d(G)[sp].d(A)[sp].d(A)[sp].d(T)[sp].d([m5C])[sp].d([m5C])[sp].d([m5C])[sp].d(A)[sp].d([m5C])[sp].d(T)[sp].[moe](T)p.[moe]([m5C])p.[moe]([m5C])[sp].[moe]([m5C])}$$$$ (last 3' nucleoside missing)”: 0.25 score 0-7.
In the case of “RNA1{[moe](G)[sp].[moe](A)p.[moe](A)p.[moe](G)p.[moe]([m5C])[sp].d(A)[sp].d(T)[sp].d(A)[sp].d(T)[sp].d(T)[sp].d([m5C])[sp].d([m5C])[sp].d(T)[sp].d([m5C])[sp].d(T)[sp].[moe](A)p.[moe](T)p.[moe]([m5C])[sp].[moe]([m5C])}$$$$ (last 3' nucleoside missing)” it was 0.67 score 0-7.
Substance “RNA1{[moe](G)[sp].[moe](A)p.[moe](A)p.[moe](G)p.[moe]([m5C])[sp].d(T)[sp].d(T)[sp].d(A)[sp].d([m5C])[sp].d(A)[sp].d(T)[sp].d([m5C])[sp].d(A)[sp].d(T)[sp].d(T)[sp].[moe](T)p.[moe](T)p.[moe]([m5C])[sp].[moe](T)}$$$$ (last 3' nucleoside missing)” had a 3 h FOB score of 0 score 0-7.
In the case of “RNA1{[moe](G)[sp].[moe](A)p.[moe](A)p.[moe]([m5C])p.[moe](T)[sp].d([m5C])[sp].d(G)[sp].d(A)[sp].d(A)[sp].d([m5C])[sp].d([m5C])[sp].d(A)[sp].d([m5C])[sp].d([m5C])[sp].d(T)[sp].[moe]([m5C])p.[moe](T)p.[moe](T)[sp].[moe]([m5C])}$$$$ (last 3' nucleoside missing)” it was 1 score 0-7; in that of “RNA1{[moe](G)[sp].[moe](A)p.[moe](G)p.[moe](A)p.[moe](T)[sp].d(A)[sp].d([m5C])[sp].d(T)[sp].d(T)[sp].d(G)[sp].d(T)[sp].d([m5C])[sp].d(A)[sp].d(A)[sp].d([m5C])[sp].[moe](G)p.[moe](G)p.[moe]([m5C])[sp].[moe](A)}$$$$ (last 3' nucleoside missing)”, 1.67 score 0-7.
The same measure for “RNA1{[moe](G)[sp].[moe](A)p.[moe](G)p.[moe](T)p.[moe](A)[sp].d(A)[sp].d(A)[sp].d(T)[sp].d([m5C])[sp].d(A)[sp].d(T)[sp].d(A)[sp].d(A)[sp].d(A)[sp].d(A)[sp].[moe]([m5C])p.[moe](G)p.[moe](G)[sp].[moe](G)}$$$$ (last 3' nucleoside missing)”: 2 score 0-7; for “RNA1{[moe](G)[sp].[moe](A)p.[moe](T)p.[moe]([m5C])p.[moe](T)[sp].d(G)[sp].d(A)[sp].d(A)[sp].d(T)[sp].d([m5C])[sp].d([m5C])[sp].d([m5C])[sp].d(A)[sp].d([m5C])[sp].d(T)[sp].[moe](T)p.[moe]([m5C])p.[moe]([m5C])[sp].[moe]([m5C])}$$$$ (last 3' nucleoside missing)”: 0 score 0-7; for “RNA1{[moe](G)[sp].[moe](A)p.[moe](T)p.[moe]([m5C])p.[moe](T)p.[moe](G)p.d(A)[sp].d(A)[sp].d(T)[sp].d([m5C])[sp].d([m5C])[sp].d([m5C])[sp].d(A)[sp].d([m5C])[sp].d(T)[sp].d(T)[sp].[moe]([m5C])p.[moe]([m5C])[sp].[moe]([m5C])}$$$$ (last 3' nucleoside missing)”: 0 score 0-7.
Substance “RNA1{[moe](G)[sp].[moe](A)p.[moe]([m5C])p.[moe](A)p.[moe](T)[sp].d([m5C])[sp].d(A)[sp].d(T)[sp].d(T)[sp].d(T)[sp].d(A)[sp].d(A)[sp].d(T)[sp].d(T)[sp].d(T)[sp].[moe](G)p.[moe](T)p.[moe](G)[sp].[moe]([m5C])}$$$$ (last 3' nucleoside missing)” showed a 3 h FOB score of 0 score 0-7.
The same measure for “RNA1{[moe](G)[sp].[moe](A)p.[moe]([m5C])p.[moe](A)p.[moe]([m5C])[sp].d(T)[sp].d(T)[sp].d(T)[sp].d(T)[sp].d(A)[sp].d(T)[sp].d([m5C])[sp].d(T)[sp].d(T)[sp].d(G)[sp].[moe]([m5C])p.[moe](A)p.[moe]([m5C])[sp].[moe](T)}$$$$ (last 3' nucleoside missing)”: 2.33 score 0-7; for “RNA1{[moe](G)[sp].[moe](G)p.[moe](A)p.[moe](A)p.[moe]([m5C])[sp].d(T)[sp].d([m5C])[sp].d(G)[sp].d(A)[sp].d(A)[sp].d([m5C])[sp].d([m5C])[sp].d(A)[sp].d([m5C])[sp].d([m5C])[sp].[moe](T)p.[moe]([m5C])p.[moe](T)[sp].[moe](T)}$$$$ (last 3' nucleoside missing)”: 2.5 score 0-7; for “RNA1{[moe](G)[sp].[moe](G)p.[moe](T)p.[moe](T)p.[moe](T)[sp].d(A)[sp].d([m5C])[sp].d([m5C])[sp].d(T)[sp].d(T)[sp].d(T)[sp].d(A)[sp].d(A)[sp].d([m5C])[sp].d(A)[sp].[moe](T)p.[moe](T)p.[moe]([m5C])[sp].[moe]([m5C])}$$$$ (last 3' nucleoside missing)”: 0.25 score 0-7.
For “RNA1{[moe](G)[sp].[moe](G)p.[moe]([m5C])p.[moe](A)p.[moe](T)[sp].d([m5C])[sp].d(A)[sp].d([m5C])[sp].d(T)[sp].d(T)[sp].d(A)[sp].d([m5C])[sp].d(A)[sp].d(A)[sp].d(A)[sp].[moe]([m5C])p.[moe](T)p.[moe]([m5C])[sp].[moe](A)}$$$$ (last 3' nucleoside missing)”, the 3 h FOB score turned out to be 0.375 score 0-7.
